In PubChem BioAssay AID248 (DTP/NCI, 2004):
“And” between values parts separate entries of the source, which are not always exact repeats. Identical values can stand only once. Inconclusive results and toxic doses are left out. Cut-off read from the data, not from the text of the source: active = T/C of 150% or more; inactive = T/C below 125%.

Tested on: L1210 leukemia ip in BDF1 mice, survival T/C
Test: NCI In Vivo Anticancer Drug Screen. Data for tumor model L1210 Leukemia (intraperitoneal) in B6D2F1 (BDF1) mice
Settings: endpoint: mean survival time, higher = longer survival
Outline: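 Mice bearing the transplanted tumor received compound or vehicle. Survival of the treated group was divided by that of the vehicle-treated control group to give the ratio.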

[1] = dose: 50.0 mg/kg/injection, schedule: Q01DX009 (ip), vehicle: saline with Tween-80
[2] = dose: 100.0 mg/kg/injection, schedule: Q01DX009 (ip), vehicle: saline with Tween-80
[3] = dose: 100.0 mg/kg/injection, schedule: Q04DX003 (ip), vehicle: saline with Tween-80
[4] = dose: 200.0 mg/kg/injection, schedule: Q04DX003 (ip), vehicle: saline with Tween-80
[5] = dose: 200.0 mg/kg/injection, schedule: Q01DX009 (ip), vehicle: saline with Tween-80
[6] = dose: 100.0 mg/kg/injection, schedule: Q01DX001 (ip), vehicle: other
[7] = dose: 200.0 mg/kg/injection, schedule: Q01DX001 (ip), vehicle: other
[8] = dose: 400.0 mg/kg/injection, schedule: Q01DX001 (ip), vehicle: other
[9] = dose: 100.0 mg/kg/injection, schedule: Q04DX003 (ip), vehicle: other
[10] = dose: 200.0 mg/kg/injection, schedule: Q04DX003 (ip), vehicle: other
[11] = dose: 100.0 mg/kg/injection, schedule: Q01DX009 (ip), vehicle: Klucel (hydroxypropylcellulose) (HPC)
[12] = dose: 100.0 mg/kg/injection, schedule: Q04DX003 (ip), vehicle: saline
[13] = dose: 200.0 mg/kg/injection, schedule: Q01DX009 (ip), vehicle: Klucel (hydroxypropylcellulose) (HPC)
[14] = dose: 200.0 mg/kg/injection, schedule: Q04DX003 (ip), vehicle: saline
[15] = dose: 400.0 mg/kg/injection, schedule: Q01DX009 (ip), vehicle: Klucel (hydroxypropylcellulose) (HPC)
[16] = dose: 400.0 mg/kg/injection, schedule: Q04DX003 (ip), vehicle: saline
[17] = dose: 12.5 mg/kg/injection, schedule: Q01DX009 (ip), vehicle: saline with Tween-80
[18] = dose: 100.0 mg/kg/injection, schedule: Q01DX001 (ip), vehicle: saline
[19] = dose: 200.0 mg/kg/injection, schedule: Q01DX001 (ip), vehicle: saline
[20] = dose: 400.0 mg/kg/injection, schedule: Q01DX001 (ip), vehicle: saline
[21] = dose: 50.0 mg/kg/injection, schedule: Q01DX009 (ip), vehicle: Klucel (hydroxypropylcellulose) (HPC)
[22] = dose: 100.0 mg/kg/injection, schedule: Q01DX001 (ip), vehicle: carboxymethylcellulose (CMC)
[23] = dose: 100.0 mg/kg/injection, schedule: Q04DX002 (ip), vehicle: Klucel (hydroxypropylcellulose) (HPC)
[24] = dose: 200.0 mg/kg/injection, schedule: Q01DX001 (ip), vehicle: carboxymethylcellulose (CMC)
[25] = dose: 200.0 mg/kg/injection, schedule: Q04DX002 (ip), vehicle: Klucel (hydroxypropylcellulose) (HPC)
[26] = dose: 400.0 mg/kg/injection, schedule: Q01DX001 (ip), vehicle: carboxymethylcellulose (CMC)
[27] = dose: 400.0 mg/kg/injection, schedule: Q04DX002 (ip), vehicle: Klucel (hydroxypropylcellulose) (HPC)

Measured: T/C

COc1ccc(CNCC(=O)OCc2ccccc2)cc1
inactive: [1] 91 % of control | [2] 100 % of control | [3] 102 % of control | [4] 101 % of control

Cc1c(Cl)cccc1NS(=O)(=O)c1cccc([N+](=O)[O-])c1
inactive: [2] 90 % of control | [5] 87 % of control

CC1=CC(=O)C(C(C)C)C1 (centres undefined)
inactive: [6] 98 % of control | [7] 109 % of control | [8] 95 % of control

Brc1ccc(N2N=C(c3ccccc3)N(c3ccc(Br)cc3)N=C2c2ccccc2)cc1
inactive: [6] 90 % of control | [9] 104 % of control | [7] 93 % of control | [10] 89 % of control | [8] 95 % of control | dose: 400.0 mg/kg/injection, schedule: Q04DX003 (ip), vehicle: other 89 % of control

CC1SC(N)=NC1=O (centres undefined)
inactive: [11] 94 % of control | [12] 108 % of control | [13] 100 % of control | [14] 103 % of control | [15] 100 % of control | [16] 93 % of control

C=C(Br)CSC#N
inactive: [17] 93 % of control | dose: 25.0 mg/kg/injection, schedule: Q01DX009 (ip), vehicle: saline with Tween-80 102 % of control | [1] 89 % of control

CCOC(=O)C(Cc1ccccc1[N+](=O)[O-])C(=O)OCC
inactive: [18] 103 % of control | dose: 100.0 mg/kg/injection, schedule: Q01DX009 (ip), vehicle: saline 103 % of control and 89 % of control | dose: 100.0 mg/kg/injection, schedule: Q04DX002 (ip), vehicle: saline 112 % of control and 113 % of control | [12] 94 % of control | [19] 101 % of control | dose: 200.0 mg/kg/injection, schedule: Q01DX009 (ip), vehicle: saline 93 % of control and 105 % of control | dose: 200.0 mg/kg/injection, schedule: Q04DX002 (ip), vehicle: saline 108 % of control | [14] 103 % of control | [20] 100 % of control | dose: 400.0 mg/kg/injection, schedule: Q01DX009 (ip), vehicle: saline 96 % of control and 105 % of control | dose: 400.0 mg/kg/injection, schedule: Q04DX002 (ip), vehicle: saline 102 % of control and 108 % of control | [16] 103 % of control

COC(=O)/C(C#N)=C\c1ccccc1
inactive: [3] 95 % of control | [4] 101 % of control

C=CC1CN2CCC1CC2C(O)c1ccnc2ccc(OC)cc12 (centres undefined) (tested in a mixture with another compound)
inactive: [21] 97 % of control and 95 % of control | [1] 95 % of control | dose: 50.0 mg/kg/injection, schedule: Q04DX003 (ip), vehicle: other 95 % of control | dose: 75.0 mg/kg/injection, schedule: Q01DX001 (ip), vehicle: saline 100 % of control and 99 % of control | [22] 98 % of control | dose: 100.0 mg/kg/injection, schedule: Q01DX001 (ip), vehicle: saline with Tween-80 96 % of control | [11] 97 % of control and 104 % of control | [2] 95 % of control | [23] 107 % of control | dose: 100.0 mg/kg/injection, schedule: Q04DX003 (ip), vehicle: Klucel (hydroxypropylcellulose) (HPC) 93 % of control | [9] 103 % of control | [3] 103 % of control | [12] 102 % of control | dose: 150.0 mg/kg/injection, schedule: Q01DX001 (ip), vehicle: saline 86 % of control and 99 % of control | [24] 102 % of control | dose: 200.0 mg/kg/injection, schedule: Q01DX001 (ip), vehicle: saline with Tween-80 96 % of control | [13] 97 % of control | [5] 101 % of control | [25] 96 % of control | dose: 200.0 mg/kg/injection, schedule: Q04DX003 (ip), vehicle: Klucel (hydroxypropylcellulose) (HPC) 93 % of control | [10] 93 % of control | [4] 87 % of control | [14] 96 % of control | dose: 300.0 mg/kg/injection, schedule: Q01DX001 (ip), vehicle: saline 89 % of control and 91 % of control | [26] 93 % of control | dose: 400.0 mg/kg/injection, schedule: Q01DX001 (ip), vehicle: saline with Tween-80 93 % of control | [27] 100 % of control

Cc1cccc(N2CCN(CCO)CC2)c1
inactive: dose: 50.0 mg/kg/injection, schedule: Q01DX009 (ip), vehicle: saline 106 % of control

COc1ccc(CN2CCCN(Cc3ccc(OC)cc3OC)C2c2ccc(N(C)C)cc2Cl)c(OC)c1
inactive: dose: 50.0 mg/kg/injection, schedule: Q01DX001 (ip), vehicle: saline 97 % of control | [18] 101 % of control | [19] 95 % of control | [20] 95 % of control

Cc1ccc(C(=O)CC(Sc2ccccc2N)c2c(Cl)cccc2Cl)c(C)c1 (centres undefined)
inactive: [21] 94 % of control | dose: 100.0 mg/kg/injection, schedule: Q01DX005 (ip), vehicle: Klucel (hydroxypropylcellulose) (HPC) 108 % of control | [11] 94 % of control | [23] 98 % of control | dose: 200.0 mg/kg/injection, schedule: Q01DX005 (ip), vehicle: Klucel (hydroxypropylcellulose) (HPC) 89 % of control | [13] 91 % of control | [25] 109 % of control | [27] 117 % of control

Fc1ccc(CSC(=S)Nc2ccc(Cl)c(Cl)c2)cc1
inactive: dose: 75.0 mg/kg/injection, schedule: Q04DX003 (ip), vehicle: saline with Tween-80 102 % of control | dose: 150.0 mg/kg/injection, schedule: Q04DX003 (ip), vehicle: saline with Tween-80 106 % of control

CC(=O)N=C1CCCC1C#N (centres undefined)
inactive: [11] 101 % of control | [12] 105 % of control | [13] 101 % of control | [14] 109 % of control | [15] 95 % of control | [16] 100 % of control

CN(C)C(C#N)C(=O)c1ccc(Cl)cc1 (centres undefined)
inactive: [18] 91 % of control | [19] 95 % of control

CCCCCCCN(CCCCCCC)C(=O)N(CC)CC
inactive: dose: 100.0 mg/kg/injection, schedule: Q04DX002 (ip), vehicle: saline with Tween-80 93 % of control | dose: 200.0 mg/kg/injection, schedule: Q04DX002 (ip), vehicle: saline with Tween-80 93 % of control | dose: 400.0 mg/kg/injection, schedule: Q04DX002 (ip), vehicle: saline with Tween-80 97 % of control

Cc1ccc(C(C)C)cc1NC(=S)Nc1ccccc1
inactive: [23] 105 % of control | [25] 111 % of control | [27] 97 % of control

CC(C)C(Cl)c1ccccc1 (centres undefined)
inactive: [1] 87 % of control | [2] 91 % of control | [5] 87 % of control

C/C=C/C[P+](Cc1cccc(C)c1)(c1ccccc1)c1ccccc1
inactive: dose: 3.13 mg/kg/injection, schedule: Q01DX009 (ip), vehicle: saline with Tween-80 107 % of control | dose: 6.25 mg/kg/injection, schedule: Q01DX009 (ip), vehicle: saline with Tween-80 113 % of control | [17] 98 % of control

O=C(O)/C(=C\c1cccc(Br)c1)c1ccccc1
inactive: dose: 75.0 mg/kg/injection, schedule: Q04DX003 (ip), vehicle: Klucel (hydroxypropylcellulose) (HPC) 104 % of control | dose: 100.0 mg/kg/injection, schedule: Q01DX001 (ip), vehicle: Klucel (hydroxypropylcellulose) (HPC) 105 % of control | dose: 150.0 mg/kg/injection, schedule: Q04DX003 (ip), vehicle: Klucel (hydroxypropylcellulose) (HPC) 96 % of control | dose: 200.0 mg/kg/injection, schedule: Q01DX001 (ip), vehicle: Klucel (hydroxypropylcellulose) (HPC) 97 % of control | dose: 300.0 mg/kg/injection, schedule: Q04DX003 (ip), vehicle: Klucel (hydroxypropylcellulose) (HPC) 105 % of control | dose: 400.0 mg/kg/injection, schedule: Q01DX001 (ip), vehicle: Klucel (hydroxypropylcellulose) (HPC) 97 % of control

N#CCC(=O)N/N=C\c1ccc2c(c1)OCO2
inactive: [22] 97 % of control | [24] 94 % of control | [26] 97 % of control
